The values that follow come from patent US9289429B2, “Compounds and methods for inhibiting phosphate transport” (Ardelyx, Inc., priority 2010, dated 2016).

SMILES strings stand for the structures. Bounds are passed on as bounds.

One data set deals with T1, human NaP2b (SLC34A2) (Homo sapiens, UniProt O95436).
T1 construct: host or cells: HEK293
T1 sequence (O95436 1-690): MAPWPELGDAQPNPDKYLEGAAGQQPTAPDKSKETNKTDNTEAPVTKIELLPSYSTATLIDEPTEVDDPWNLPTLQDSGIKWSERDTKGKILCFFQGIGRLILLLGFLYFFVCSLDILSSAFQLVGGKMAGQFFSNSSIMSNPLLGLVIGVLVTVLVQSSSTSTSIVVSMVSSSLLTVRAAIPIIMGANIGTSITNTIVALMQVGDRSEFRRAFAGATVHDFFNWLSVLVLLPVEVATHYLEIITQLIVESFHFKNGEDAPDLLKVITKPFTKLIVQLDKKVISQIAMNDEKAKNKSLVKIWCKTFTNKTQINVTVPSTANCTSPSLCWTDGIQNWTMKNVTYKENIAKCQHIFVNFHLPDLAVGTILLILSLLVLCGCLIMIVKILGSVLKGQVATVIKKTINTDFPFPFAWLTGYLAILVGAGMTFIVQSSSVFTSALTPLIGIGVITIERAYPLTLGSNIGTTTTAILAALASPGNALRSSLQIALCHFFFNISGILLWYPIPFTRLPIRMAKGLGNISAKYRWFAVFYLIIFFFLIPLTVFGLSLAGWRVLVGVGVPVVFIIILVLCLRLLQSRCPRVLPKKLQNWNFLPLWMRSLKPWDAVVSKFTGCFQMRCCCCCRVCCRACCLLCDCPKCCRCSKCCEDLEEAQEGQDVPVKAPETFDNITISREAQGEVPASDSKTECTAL
Nature of the data set: NaP2b-mediated Pi transport (33P uptake) in transfected HEK293 cells, human transporter. It counts as cell-based. The conditions noted are these: HEK293 cells transfected with human NaP2b (Thr inserted after residue 37, N39D), 33P phosphate uptake, 100 uM KH2PO4; read-out: pIC50 range for human Nap2b (converted). As to the method: (§1) HEK293 cells were obtained from the American Type Culture collection and propagated per their instructions. Expression clones for rat and human NaP2b (SLC34A2) were obtained from Open Biosystems (Catalog numbers MRN1768-9510282, and MHS1010-99823026, respectively). The sequence of the human protein was mutated to insert a threonine after residue 37, and to introduce a N39D mutation.
(§2) The rate of phosphate (Pi) uptake into HEK293 cells was measured using a modification of the method described by Mohrmann et al. (Mohrmann, I., Mohrmann, M., Biber, J., and Murer, H. (1986) Am. J. Phys. 250(3 Pt 1):G323-30.) Transfected HEK293 cells were treated with a pharmacological agent to minimize endogenous PiT-mediated phosphate transport activity, such that the only remaining sodium-dependent phosphate transport activity is that which was bestowed by introduction of the NaP2b genes.
(§3) Cells were seeded into 96-well plates at 25,000 cells/well and cultured overnight. Lipofectamine 2000 (Invitrogen) was used to introduce the NaP2b cDNA, and the cells were allowed to approach confluence during a second overnight incubation. […] Cells were then overlayed with either choline uptake buffer or sodium uptake buffer (14 mM Tris, 137 mM sodium chloride, 5.4 mM KCl, 2.8 mM CaCl2, 1.2 mM MgSO4, 100 uM KH2PO4, PiT-silencing agent, 1 mg/mL Bovine Serum Albumin, pH 7.4) containing 6-9 uCi/mL ^33P orthophosphoric acid (Perkin Elmer) and test compound. Each compound was tested at twelve concentrations ranging from 0.1 nM to 30 uM. Assays were run in duplicate.
(§4) After incubation for 3-30 minutes at room temperature, assay mixtures were removed, and the cells were washed twice with ice cold stop solution (137 mM sodium chloride, 14 mM Tris, pH 7.4). Cells were lysed by addition of 20 μL 0.1% Tween 80 followed by 100 μL scintillation fluid, and counted using a TopCount (Perkin Elmer).
(§5) pIC50 (the negative log of the IC50) values of the test compounds were calculated using GraphPad Prism.

A further data set addresses T2, NaPi2b (Rattus norvegicus, UniProt Q9JJ09).
T2 construct: host or cells: HEK293
T2 sequence (Q9JJ09 1-695): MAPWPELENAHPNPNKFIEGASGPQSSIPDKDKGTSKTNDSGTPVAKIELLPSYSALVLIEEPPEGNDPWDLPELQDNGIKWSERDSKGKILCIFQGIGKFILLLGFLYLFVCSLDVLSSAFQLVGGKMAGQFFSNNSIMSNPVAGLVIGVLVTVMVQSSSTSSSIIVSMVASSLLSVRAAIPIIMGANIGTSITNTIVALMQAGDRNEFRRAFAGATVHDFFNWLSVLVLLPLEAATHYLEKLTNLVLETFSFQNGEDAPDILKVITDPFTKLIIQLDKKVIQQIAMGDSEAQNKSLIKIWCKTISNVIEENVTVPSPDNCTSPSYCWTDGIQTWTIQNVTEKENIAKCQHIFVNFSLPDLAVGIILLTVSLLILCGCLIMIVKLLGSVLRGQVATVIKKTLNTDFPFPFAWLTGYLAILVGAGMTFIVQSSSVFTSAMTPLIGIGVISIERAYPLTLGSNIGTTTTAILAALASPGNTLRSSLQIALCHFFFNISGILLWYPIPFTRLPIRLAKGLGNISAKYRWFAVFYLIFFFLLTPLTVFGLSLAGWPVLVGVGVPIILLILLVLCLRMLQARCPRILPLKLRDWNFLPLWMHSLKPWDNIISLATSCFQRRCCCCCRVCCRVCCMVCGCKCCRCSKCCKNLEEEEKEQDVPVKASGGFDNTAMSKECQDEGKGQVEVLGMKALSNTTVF
Nature of the data set: Competition with phosphate: Pi transport assay repeated at 2.1 vs 0.1 mM phosphate. It counts as cell-based. As to conditions: potency for inhibition of NaPi2b at 2.1 vs 0.1 mM phosphate. The procedure:
To ascertain if an inhibitor was competitive for binding with phosphate, the procedure was repeated, but raising the concentration of the substrate in the assay mixture from 0.1 to 2.1 mM phosphate.

The next data set has as its target T3, rat NaP2b (SLC34A2) (Rattus norvegicus, UniProt Q9JJ09).
T3 construct: host or cells: HEK293
T3 sequence (Q9JJ09 1-695): T2 sequence (Q9JJ09 1-695)
As to the kind of experiment: NaP2b-mediated Pi transport (33P uptake) in transfected HEK293 cells, rat transporter. It counts as cell-based. As to conditions: HEK293 cells transfected with rat NaP2b, 33P phosphate uptake, 100 uM KH2PO4; read-out: pIC50 range for rat Nap2b (converted). The procedure:
as §1, §2, §3, §4, §5

Data set [1] in a line: Fecal recovery of orally administered compounds. It counts as in vivo. As to conditions: rat, oral gavage, feces collected until 48 hr after dosing, same animals as Example 22. As to the method: Quantitative determination of test compound level in feces after oral gavage was performed using the same set of animals used to determine test compound concentration in plasma (Example 22). The animals were kept in metabolic cages and feces were collected from the time of dosing until 48 hr after dosing. Upon collection, feces was dried by lyophilization and ground to a visually homogenous powder. Duplicate samples of ground feces from each individual animal were weighed out and extracted using organic solvent. Extracted samples were then diluted into mobile phase and test compound levels were quantitatively determined by LC-MS/MS analysis as described in “Example 22” except that the standard curve was prepared in a feces matrix. Extraction conditions were not optimized for individual compounds, and thus may represent a minimal level of recovery.

A short description of data set [2]: Determination of compound Cmax and AUC after oral gavage. The conditions noted are these: Sprague-Dawley, rat plasma, actual oral dose 8.9 mg/kg (Example 11) or 10 mg/kg (Example 2). It counts as in vivo. The procedure:
Sprague-Dawley rats were orally gavaged with test article at a nominal dose of 2.5 or 10 mg/kg and blood was collected at 0.5, 1, 2 and 4 h. Blood samples were processed to plasma using K2EDTA as an anticoaglulant. Plasma samples were treated with acetonitrile containing an internal standard, precipitated proteins removed by centrifugation. Supernatants were analyzed by LC-MS/MS and compound concentrations were determined by interpolated from a standard curve prepared in plasma. All compounds were orally dosed at the dosage shown, and pharmacokinetic parameters determined

For the next data set, the system named is Sprague-Dawley rats. As to the kind of experiment: In vivo bolus phosphate challenge. As to conditions: rat, oral, Drug Dose 30 (unit not given), serum 30 min post phosphate bolus. The procedure: By pretreating animals with a low phosphorus diet followed by the subsequent dosing of a phosphorus bolus, serum phosphorus levels were monitored after 30 minutes as a surrogate for intestinal phosphorus absorption. […] The in vivo bolus phosphorus challenge model used here mimics this model in rats.
Male, 7-week-old Sprague-Dawley rats (Charles-River laboratories international, Hollister, Calif.) were allowed to acclimate for a minimum of 3 days before switching to a synthetic low-phosphorus diet (TD.85010, Harlan Teklad, Madison, Wis.) which contains 0.1% phosphorus and 0.6% calcium. At day 5, testing compounds or vehicle alone (as indicated) were orally administered at the indicated dose in a volume of 5 ml/kg, followed by a bolus gavage of monobasic sodium phosphate (1 mmol in 1 ml) 15 min after compound dosing. Serum was collected via retroorbital bleeding 30 min post phosphate bolus and phosphate levels were determined utilizing an ACE ALERA blood chemistry analyzer (Alfa Wassermann Diagnostic Technologies, West Caldwell, N.J.).
The extent of inhibition by test compounds on the elevation of serum phosphate levels in response to the bolus of phosphate is shown in Table 3 (data are expressed as % Inhibition, with 6-10 animals per data point). The differences between groups were evaluated by one-way analysis of variance with Dunnett's post hoc tests.

On to `CN(CCN1CCOCC1)C(=O)c1cccc(C(=O)Nc2ccc(N3CCCCC3)cc2C(=O)Nc2cnc(-c3ccccc3)nc2)c1` [Example 11, N1-Methyl-N1-(2-morpholinoethyl)-N3-(2-((2-phenylpyrimidin-5-yl)carbamoyl)-4-(piperidin-1-yl)phenyl)isophthalamide], for which the IC50 on human NaP2b (SLC34A2) and on rat NaP2b (SLC34A2) was less than 1000 nM in each case. On NaPi2b, the “Competitive with respect to Pi?” value is “No”. The “% recovered in feces” value in data set [1] came out at 26%.
As usually defined, the Cmax is the highest concentration seen after dosing. In general, AUC refers to concentration integrated over time. Regarding `O=C(O)CCSCc1cccc(C(=O)Nc2ccc(N3CCCCC3)cc2C(=O)Nc2cnc(-c3ccccc3)nc2)c1` [Example 2, 3-((3-((2-((2-Phenylpyrimidin-5-yl)carbamoyl)-4-(piperidin-1-yl)phenyl)carbamoyl)benzyl)thio)propanoic acid], the concentration in data set [2] (LLOQ 5 ng/mL) peaked (Cmax) at 645 ng/mL. In data set [2] (samples 0.5-4 h), the AUC came to 822 ng·h/mL. Besides, the IC50 on rat NaP2b (SLC34A2) was 1000 to 7940 nM. In addition, the “% recovered in feces” value in data set [1] was 16%.
Turning to `O=C(O)CCSCc1cccc(C(=O)Nc2ccc(N3CCCCC3)cc2C(=O)Nc2cnc(-c3cccc(C(F)(F)F)c3)nc2)c1` [Example 4, 3-((3-((4-(Piperidin-1-yl)-2-((2-(3-(trifluoromethyl)phenyl)pyrimidin-5-yl)carbamoyl)phenyl)carbamoyl)benzyl)thio)propanoic acid], in the data set with Sprague-Dawley rats, the “% Inhibition of Serum P elevation” value is reported as 11%. The IC50 on rat NaP2b (SLC34A2) was 1000 to 7940 nM.
